According to PubChem BioAssay AID248 (DTP/NCI, 2004):
Toxic doses and inconclusive results are not listed. No stated cut-off is given here; in the data, active means T/C of 150% or more; inactive means T/C below 125%.

Test system: L1210 leukemia ip in BDF1 mice, survival T/C
Experiment: NCI In Vivo Anticancer Drug Screen. Data for tumor model L1210 Leukemia (intraperitoneal) in B6D2F1 (BDF1) mice
Details: endpoint: mean survival time, higher = longer survival
Method in brief: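 Tumor was transplanted into mice, which were then dosed with test compound or vehicle alone. Survival was recorded for each group, and the treated figure was expressed relative to the control figure.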

[1] = dose: 75.0 mg/kg/injection, schedule: Q01DX001 (ip), vehicle: saline
[2] = dose: 100.0 mg/kg/injection, schedule: Q01DX001 (ip), vehicle: saline
[3] = dose: 100.0 mg/kg/injection, schedule: Q04DX002 (ip), vehicle: saline with Tween-80
[4] = dose: 200.0 mg/kg/injection, schedule: Q01DX001 (ip), vehicle: saline
[5] = dose: 400.0 mg/kg/injection, schedule: Q01DX001 (ip), vehicle: saline
[6] = dose: 100.0 mg/kg/injection, schedule: Q01DX001 (ip), vehicle: Klucel (hydroxypropylcellulose) (HPC)
[7] = dose: 200.0 mg/kg/injection, schedule: Q01DX001 (ip), vehicle: Klucel (hydroxypropylcellulose) (HPC)
[8] = dose: 400.0 mg/kg/injection, schedule: Q01DX001 (ip), vehicle: Klucel (hydroxypropylcellulose) (HPC)
[9] = dose: 100.0 mg/kg/injection, schedule: Q04DX003 (ip), vehicle: Klucel (hydroxypropylcellulose) (HPC)

Measured: T/C

O=C(O)Cc1ccccc1
inactive: dose: 18.75 mg/kg/injection, schedule: Q01DX009 (ip), vehicle: acetone 95 % of control | dose: 37.5 mg/kg/injection, schedule: Q01DX009 (ip), vehicle: acetone 90 % of control | dose: 37.5 mg/kg/injection, schedule: Q04DX003 (ip), vehicle: acetone 96 % of control | dose: 75.0 mg/kg/injection, schedule: Q01DX001 (ip), vehicle: carboxymethylcellulose (CMC) 96 % of control | [1] 95 % of control | dose: 75.0 mg/kg/injection, schedule: Q01DX009 (ip), vehicle: acetone 90 % of control | dose: 75.0 mg/kg/injection, schedule: Q04DX003 (ip), vehicle: acetone 91 % of control | dose: 150.0 mg/kg/injection, schedule: Q01DX001 (ip), vehicle: carboxymethylcellulose (CMC) 94 % of control | dose: 150.0 mg/kg/injection, schedule: Q01DX001 (ip), vehicle: saline 93 % of control | dose: 150.0 mg/kg/injection, schedule: Q04DX003 (ip), vehicle: acetone 98 % of control

CCCCCCCC[As](=O)(O)O
inactive: dose: 1.5 mg/kg/injection, schedule: Q01DX001 (ip), vehicle: carboxymethylcellulose (CMC) 104 % of control | dose: 3.0 mg/kg/injection, schedule: Q01DX001 (ip), vehicle: carboxymethylcellulose (CMC) 98 % of control | dose: 6.0 mg/kg/injection, schedule: Q01DX001 (ip), vehicle: carboxymethylcellulose (CMC) 102 % of control

Cc1cc(C)c(C(C)C)cc1C(C)C
inactive: dose: 100.0 mg/kg/injection, schedule: Q04DX003 (ip), vehicle: saline 100 % of control | dose: 200.0 mg/kg/injection, schedule: Q04DX003 (ip), vehicle: saline 100 % of control | dose: 400.0 mg/kg/injection, schedule: Q04DX003 (ip), vehicle: saline 90 % of control

S=C(S)N1CCOCC1.[Cu+2]
inactive: dose: 50.0 mg/kg/injection, schedule: Q01DX001 (ip), vehicle: carboxymethylcellulose (CMC) 88 % of control | dose: 100.0 mg/kg/injection, schedule: Q01DX001 (ip), vehicle: carboxymethylcellulose (CMC) 107 % of control

CCCCCCCCCCCC[N+](CCCCCCCCCCCC)=C1SCCS1
inactive: dose: 1.56 mg/kg/injection, schedule: Q04DX003 (ip), vehicle: carboxymethylcellulose (CMC) 96 % of control | dose: 3.13 mg/kg/injection, schedule: Q04DX003 (ip), vehicle: carboxymethylcellulose (CMC) 104 % of control | dose: 6.25 mg/kg/injection, schedule: Q04DX003 (ip), vehicle: carboxymethylcellulose (CMC) 110 % of control

Cc1cc(C)c(S(=O)(=O)O)c(Cc2ccc3ccccc3c2)c1
inactive: [2] 94 % of control

CCC(C)C(CCCCN(C)C)(CNC(=O)CN(CC)CC)c1cccc2ccccc12 (configuration not stated)
inactive: dose: 100.0 mg/kg/injection, schedule: Q01DX009 (ip), vehicle: saline 99 % of control

CNC(=O)NN
inactive: dose: 25.0 mg/kg/injection, schedule: Q04DX002 (ip), vehicle: saline with Tween-80 97 % of control | dose: 50.0 mg/kg/injection, schedule: Q04DX002 (ip), vehicle: saline with Tween-80 93 % of control | [3] 90 % of control

CC(C)(C)CC(C)(C)N(CSc1ccc([N+](=O)[O-])cc1)CSc1ccc([N+](=O)[O-])cc1
inactive: [2] 102 % of control | [4] 94 % of control | [5] 94 % of control

C[C-]=O.C[C-]=O.[Br][Pd][Br]
inactive: dose: 100.0 mg/kg/injection, schedule: Q01DX001 (ip), vehicle: saline with Tween-80 97 % of control | dose: 200.0 mg/kg/injection, schedule: Q01DX001 (ip), vehicle: saline with Tween-80 100 % of control | dose: 400.0 mg/kg/injection, schedule: Q01DX001 (ip), vehicle: saline with Tween-80 107 % of control

Cn1c2ccccc2c2n[nH]c(=S)nc21
inactive: [3] 104 % of control | dose: 200.0 mg/kg/injection, schedule: Q04DX002 (ip), vehicle: saline with Tween-80 93 % of control | dose: 400.0 mg/kg/injection, schedule: Q04DX002 (ip), vehicle: saline with Tween-80 101 % of control

NC1=NC(Cc2ccccc2)N(c2ccc(Cl)cc2)C(N)=N1 (configuration not stated)
inactive: dose: 14.0 mg/kg/injection, schedule: Q01DX009 (ip), vehicle: steriod suspending solution 98 % of control | dose: 24.0 mg/kg/injection, schedule: Q01DX009 (ip), vehicle: steriod suspending solution 98 % of control | dose: 39.0 mg/kg/injection, schedule: Q01DX009 (ip), vehicle: steriod suspending solution 98 % of control | dose: 65.0 mg/kg/injection, schedule: Q01DX009 (ip), vehicle: steriod suspending solution 96 % of control

CCCCOc1ccc(C(N)=S)c2ccccc12
inactive: [6] 105 % of control | [7] 112 % of control | [8] 94 % of control

O=C(NCCCCCCCCCCCCNC(=O)Nc1cccc(C2=NCC(O)CN2)c1)Nc1cccc(C2=NCC(O)CN2)c1 (configuration not stated)
inactive: dose: 62.5 mg/kg/injection, schedule: Q01DX Z (ip), vehicle: carboxymethylcellulose (CMC) 105 % of control | dose: 125.0 mg/kg/injection, schedule: Q01DX Z (ip), vehicle: carboxymethylcellulose (CMC) 94 % of control

CCCNc1ccc(C2=NCCCN2)cc1
inactive: [2] 102 % of control

COc1cc(/C=C(/C)[N+](=O)[O-])c([N+](=O)[O-])cc1OC
inactive: [2] 98 % of control | [4] 90 % of control

CCOC(=O)c1[nH]c(COC(C)=O)c(CCC(=O)O)c1C
inactive: dose: 25.0 mg/kg/injection, schedule: Q04DX003 (ip), vehicle: Klucel (hydroxypropylcellulose) (HPC) 101 % of control | dose: 50.0 mg/kg/injection, schedule: Q04DX003 (ip), vehicle: Klucel (hydroxypropylcellulose) (HPC) 95 % of control | [6] 101 % of control | [9] 98 % of control | [7] 93 % of control | [8] 88 % of control

OC(Cc1ccc2ccccc2n1)C(Cl)(Cl)Cl (configuration not stated)
inactive: dose: 25.0 mg/kg/injection, schedule: Q01DX009 (ip), vehicle: saline with Tween-80 103 % of control | dose: 50.0 mg/kg/injection, schedule: Q01DX009 (ip), vehicle: saline with Tween-80 91 % of control | dose: 100.0 mg/kg/injection, schedule: Q01DX009 (ip), vehicle: Klucel (hydroxypropylcellulose) (HPC) 101 % of control | dose: 100.0 mg/kg/injection, schedule: Q01DX009 (ip), vehicle: saline with Tween-80 101 % of control | dose: 200.0 mg/kg/injection, schedule: Q01DX009 (ip), vehicle: Klucel (hydroxypropylcellulose) (HPC) 93 % of control | dose: 200.0 mg/kg/injection, schedule: Q01DX009 (ip), vehicle: saline with Tween-80 89 % of control | dose: 400.0 mg/kg/injection, schedule: Q01DX009 (ip), vehicle: Klucel (hydroxypropylcellulose) (HPC) 101 % of control | dose: 400.0 mg/kg/injection, schedule: Q01DX009 (ip), vehicle: saline with Tween-80 114 % of control

CC(C)(C)C1CC=CCC1 (configuration not stated)
inactive: dose: 50.0 mg/kg/injection, schedule: Q01DX009 (ip), vehicle: saline sonified 96 % of control | dose: 100.0 mg/kg/injection, schedule: Q01DX009 (ip), vehicle: saline sonified 102 % of control | dose: 200.0 mg/kg/injection, schedule: Q01DX009 (ip), vehicle: saline sonified 100 % of control

CC(C)C[As](=O)(O)O
inactive: [9] 106 % of control | dose: 200.0 mg/kg/injection, schedule: Q04DX003 (ip), vehicle: Klucel (hydroxypropylcellulose) (HPC) 95 % of control

CSc1cccc[n+]1C
inactive: [1] 104 % of control

CC1OC(n2cnc3c(=S)nc[nH]c32)C(O)C1O (configuration not stated)
inactive: dose: 50.0 mg/kg/injection, schedule: Q01DX001 (ip), vehicle: saline 93 % of control | [2] 96 % of control | [4] 102 % of control | [5] 93 % of control

COc1ccc(CNCCCCO)cc1
inactive: dose: 50.0 mg/kg/injection, schedule: Q01DX009 (ip), vehicle: other 106 % of control | dose: 100.0 mg/kg/injection, schedule: Q01DX001 (ip), vehicle: other 104 % of control | dose: 100.0 mg/kg/injection, schedule: Q01DX009 (ip), vehicle: other 102 % of control | dose: 200.0 mg/kg/injection, schedule: Q01DX001 (ip), vehicle: other 106 % of control | dose: 200.0 mg/kg/injection, schedule: Q01DX009 (ip), vehicle: other 95 % of control | dose: 400.0 mg/kg/injection, schedule: Q01DX001 (ip), vehicle: other 97 % of control
